Measurements from patent US11492335B2, “Aryl or heteroaryl triazolone derivatives or salts thereof, or pharmaceutical compositions comprising the same” (YUHAN CORPORATION, priority 2018, dated 2022).
Counter-ions that a name gives are not always drawn. Like-named read-outs stand apart in the source and are kept apart here.

How the values were obtained:
Format in all cases: biochemical
recombinant human VAP-1 = molecular target: T1, recombinant human VAP-1 (Homo sapiens, UniProt Q16853); assay: Activity on recombinant human VAP-1, Amplex Red HRP-coupled hydrogen peroxide assay, benzylamine substrate; details: recombinant human VAP-1, benzylamine substrate; read-out: Inhibitory Activity (IC50, nM) human VAP-1
T1 construct: purchased R&D systems
T1 sequence (Q16853 1-763): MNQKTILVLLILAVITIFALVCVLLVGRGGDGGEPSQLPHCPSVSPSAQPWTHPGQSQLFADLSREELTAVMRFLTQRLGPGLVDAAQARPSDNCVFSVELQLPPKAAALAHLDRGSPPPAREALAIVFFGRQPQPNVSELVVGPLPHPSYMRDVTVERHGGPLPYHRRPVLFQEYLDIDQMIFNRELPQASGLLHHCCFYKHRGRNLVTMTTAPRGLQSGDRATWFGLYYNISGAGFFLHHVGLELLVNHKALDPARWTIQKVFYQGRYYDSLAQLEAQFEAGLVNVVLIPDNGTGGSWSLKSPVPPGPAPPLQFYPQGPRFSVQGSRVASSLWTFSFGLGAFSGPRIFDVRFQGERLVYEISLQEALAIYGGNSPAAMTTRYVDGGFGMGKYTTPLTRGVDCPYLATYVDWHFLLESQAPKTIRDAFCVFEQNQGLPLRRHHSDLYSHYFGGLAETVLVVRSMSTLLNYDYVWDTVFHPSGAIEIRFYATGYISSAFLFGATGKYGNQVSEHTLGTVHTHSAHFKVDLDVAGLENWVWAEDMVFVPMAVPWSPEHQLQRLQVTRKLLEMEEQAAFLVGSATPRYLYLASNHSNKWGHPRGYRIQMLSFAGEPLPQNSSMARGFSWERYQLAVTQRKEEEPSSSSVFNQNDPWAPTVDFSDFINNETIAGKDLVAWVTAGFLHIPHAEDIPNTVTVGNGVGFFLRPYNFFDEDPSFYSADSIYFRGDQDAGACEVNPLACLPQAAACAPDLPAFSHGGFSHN
In short: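 Dose-response IC50 determined from reduction in resorufin signal rate (544/590 nm, 1-2 h), with 30 min compound preincubation at 37 °C and 1 mM benzylamine as substrate.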

[1] = molecular target: T2, recombinant human DAO (diamine oxidase) (Homo sapiens, UniProt P19801); assay: Activity on recombinant human DAO, Amplex Red method, 1 mM putrescine substrate; details: recombinant human DAO, 1 mM putrescine substrate, read-out: Inhibitory Activity (IC50, nM) DAO
T2 construct: purchased R&D systems
T2 sequence (P19801 20-751): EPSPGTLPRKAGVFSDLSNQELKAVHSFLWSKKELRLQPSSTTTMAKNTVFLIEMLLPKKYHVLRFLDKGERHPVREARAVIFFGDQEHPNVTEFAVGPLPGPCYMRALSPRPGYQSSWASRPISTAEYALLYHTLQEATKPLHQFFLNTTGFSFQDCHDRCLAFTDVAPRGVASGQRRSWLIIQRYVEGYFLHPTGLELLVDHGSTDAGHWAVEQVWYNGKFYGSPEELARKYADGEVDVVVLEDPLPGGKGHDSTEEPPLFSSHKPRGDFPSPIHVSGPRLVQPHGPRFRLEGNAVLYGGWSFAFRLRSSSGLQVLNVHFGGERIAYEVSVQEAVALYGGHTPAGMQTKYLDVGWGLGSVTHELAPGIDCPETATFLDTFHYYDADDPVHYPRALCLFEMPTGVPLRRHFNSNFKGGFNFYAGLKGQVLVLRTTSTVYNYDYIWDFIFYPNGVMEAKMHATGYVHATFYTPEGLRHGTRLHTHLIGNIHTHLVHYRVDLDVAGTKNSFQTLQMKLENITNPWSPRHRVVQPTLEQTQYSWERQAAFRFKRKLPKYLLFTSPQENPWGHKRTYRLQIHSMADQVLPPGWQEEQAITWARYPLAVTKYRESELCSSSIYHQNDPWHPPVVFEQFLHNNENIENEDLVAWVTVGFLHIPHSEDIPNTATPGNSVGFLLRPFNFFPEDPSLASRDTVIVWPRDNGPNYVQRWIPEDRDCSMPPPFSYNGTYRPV
In short: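 Inhibition of recombinant human DAO (diamine oxidase, R&D systems) was assessed with the Amplex Red Hydrogen Peroxide Assay Kit. Hydrogen peroxide produced from 1 mM putrescine was detected through an HRP-coupled reaction that converts Amplex Red into fluorescent resorufin, read at 544 nm excitation and 590 nm emission. IC50 values came from four-parameter logistic fits in GraphPad Prism.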

[2] = molecular target: T3, recombinant human MAO-B (monoamine oxidase-B) (Homo sapiens, UniProt P27338); assay: Activity on recombinant human MAO-B, Amplex Red method, 1 mM benzylamine substrate; details: 1 mM benzylamine substrate, read-out: Inhibitory Activity (IC50, nM) MAO-B
T3 construct: purchased Sigma-Aldrich
T3 sequence (P27338 1-520): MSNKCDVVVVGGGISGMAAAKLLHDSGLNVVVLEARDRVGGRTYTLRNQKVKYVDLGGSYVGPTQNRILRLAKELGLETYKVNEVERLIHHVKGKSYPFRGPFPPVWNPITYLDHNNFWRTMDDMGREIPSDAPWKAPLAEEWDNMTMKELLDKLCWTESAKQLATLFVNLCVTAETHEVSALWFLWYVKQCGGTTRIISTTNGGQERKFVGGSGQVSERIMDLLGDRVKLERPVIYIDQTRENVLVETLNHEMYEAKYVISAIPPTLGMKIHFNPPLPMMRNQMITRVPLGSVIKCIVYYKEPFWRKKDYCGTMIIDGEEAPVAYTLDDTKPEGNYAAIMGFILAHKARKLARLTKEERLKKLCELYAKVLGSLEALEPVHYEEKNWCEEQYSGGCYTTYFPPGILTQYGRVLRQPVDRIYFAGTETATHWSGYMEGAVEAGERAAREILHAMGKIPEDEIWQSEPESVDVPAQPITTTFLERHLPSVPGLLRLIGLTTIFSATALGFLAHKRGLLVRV
In short: (§1)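 Amplex Red/HRP coupled read-out of H2O2 with 0.5 mM tyramine for MAO-A or 1 mM benzylamine for MAO-B, following a 30-min compound–enzyme preincubation at 37° C. IC50 from percent inhibition of signal rate relative to uninhibited control.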

[3] = molecular target: T4, recombinant human MAO-A (monoamine oxidase-A) (Homo sapiens, UniProt P21397); assay: Activity on recombinant human MAO-A, Amplex Red method, 0.5 mM tyramine substrate; details: 0.5 mM tyramine substrate, read-out: Inhibitory Activity (IC50, nM) MAO-A
T4 construct: purchased Sigma-Aldrich
T4 sequence (P21397 1-527): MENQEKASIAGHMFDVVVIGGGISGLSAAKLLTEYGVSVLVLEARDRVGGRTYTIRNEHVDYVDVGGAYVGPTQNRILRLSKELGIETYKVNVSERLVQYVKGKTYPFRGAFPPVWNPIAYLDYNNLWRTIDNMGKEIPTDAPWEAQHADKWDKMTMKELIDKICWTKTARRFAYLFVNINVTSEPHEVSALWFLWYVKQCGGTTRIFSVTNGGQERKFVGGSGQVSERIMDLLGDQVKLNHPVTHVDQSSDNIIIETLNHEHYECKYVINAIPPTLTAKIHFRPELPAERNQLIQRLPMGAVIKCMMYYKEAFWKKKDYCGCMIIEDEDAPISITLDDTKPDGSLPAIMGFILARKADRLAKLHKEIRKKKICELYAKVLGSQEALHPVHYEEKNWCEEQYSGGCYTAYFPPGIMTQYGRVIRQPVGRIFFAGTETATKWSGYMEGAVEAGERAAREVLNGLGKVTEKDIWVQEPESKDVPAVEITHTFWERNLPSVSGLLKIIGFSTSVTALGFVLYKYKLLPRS
In short: as §1

Row | Compound | IC50 (recombinant human VAP-1) | IC50 [1] | IC50 [2] | IC50 [3] | IC50 ([1]; bound qualified by footnote * / **)
1 | NC/C(=C\F)Cn1ncn(-c2ncc(-c3ccc4c(c3)NCC4=O)cc2F)c1=O [Example 163, 6-(6-{1-[(2E)-2-(aminomethyl)-3-fluoroprop-2-en-1-yl]-5-oxo-1,5-dihydro-4H-1,2,4-triazol-4-yl}-5-fluoropyridin-3-yl)-1,2-dihydro-3H-indol-3-one] | 0.56 nM | 1.3 nM | 740 nM | > 100000 nM | –
2 | NC/C(=C\F)Cn1ncn(-c2ncc(-c3ccc4sc(N)nc4c3)cc2F)c1=O [Example 164, 4-[5-(2-amino-1,3-benzothiazol-5-yl)-3-fluoropyridin-2-yl]-2-[(2E)-2-(aminomethyl)-3-fluoroprop-2-en-1-yl]-2,4-dihydro-3H-1,2,4-triazol-3-one hydrochloride] | 0.25 nM | 1.4 nM | 183 nM | > 100000 nM | –
3 | CS(=O)(=O)c1ccc(-c2ccnc(-n3cnn(C/C(=C/F)CN)c3=O)c2)cc1 [Example 165, 2-[(2E)-2-(aminomethyl)-3-fluoroprop-2-en-1-yl]-4-{4-[4-(methylsulfonyl)phenyl]pyridin-2-yl}-2,4-dihydro-3H-1,2,4-triazol-3-one] | 1.9 nM | < 30 nM | > 10000 nM | > 100000 nM | –
4 | CC(=O)Nc1ccc(-c2ccnc(-n3cnn(C/C(=C/F)CN)c3=O)c2)cc1 [Example 166, N-[4-(2-{1-[(2E)-2-(aminomethyl)-3-fluoroprop-2-en-1-yl]-5-oxo-1,5-dihydro-4H-1,2,4-triazol-4-yl}pyridin-4-yl)phenyl]acetamide] | 0.23 nM | < 30 nM | 2420 nM | 20700 nM | –
5 | NC/C(=C\F)Cn1ncn(-c2cc(-c3ccc(-c4ccon4)cc3)ccn2)c1=O [Example 167, 2-[(2E)-2-(aminomethyl)-3-fluoroprop-2-en-1-yl]-4-{4-[4-(1,2-oxazol-3-yl)phenyl]pyridin-2-yl}-2,4-dihydro-3H-1,2,4-triazol-3-one] | 1 nM | < 30 nM | > 10000 nM | > 100000 nM | –
6 | CC(=O)Nc1cc(-c2ccnc(-n3cnn(C/C(=C/F)CN)c3=O)c2)ccn1 [Example 168, N-(2′-{1-[(2E)-2-(aminomethyl)-3-fluoroprop-2-en-1-yl]-5-oxo-1,5-dihydro-4H-1,2,4-triazol-4-yl}-4,4′-bipyridin-2-yl)acetamide] | 0.39 nM | < 30 nM | 159 nM | > 100000 nM | –
7 | NC/C(=C\F)Cn1ncn(-c2cc(-c3ccc(N4CCOCC4)nc3)ccn2)c1=O [Example 169, 2-[(2E)-2-(aminomethyl)-3-fluoroprop-2-en-1-yl]-4-[6-(morpholin-4-yl)-3,4′-bipyridin-2′-yl]-2,4-dihydro-3H-1,2,4-triazol-3-one] | 0.28 nM | < 30 nM | > 10000 nM | > 100000 nM | –
8 | NC/C(=C\F)Cn1ncn(-c2cc(-c3ccc4c(c3)OCO4)ccn2)c1=O [Example 170, 2-[(2E)-2-(aminomethyl)-3-fluoroprop-2-en-1-yl]-4-[4-(1,3-benzodioxol-5-yl)pyridin-2-yl]-2,4-dihydro-3H-1,2,4-triazol-3-one] | 0.74 nM | – | 235 nM | > 100000 nM | < 100 nM
9 | NC/C(=C\F)Cn1ncn(-c2cc(-c3ccc4c(c3)OCCO4)ccn2)c1=O [Example 171, 2-[(2E)-2-(aminomethyl)-3-fluoroprop-2-en-1-yl]-4-[4-(2,3-dihydro-1,4-benzodioxin-6-yl)pyridin-2-yl]-2,4-dihydro-3H-1,2,4-triazol-3-one] | 0.84 nM | < 30 nM | 1540 nM | > 100000 nM | –
10 | NC/C(=C\F)Cn1ncn(-c2cc(-c3ccc4nonc4c3)ccn2)c1=O [Example 172, 2-[(2E)-2-(aminomethyl)-3-fluoroprop-2-en-1-yl]-4-[4-(2,1,3-benzooxadiazol-5-yl)pyridin-2-yl]-2,4-dihydro-3H-1,2,4-triazol-3-one] | 0.67 nM | < 30 nM | 9070 nM | > 100000 nM | –
